Where two headings read alike, the source gives them in different places.
Legend:
[1] = test system: GIST T1-10R cells; experiment: Hit validation cell proliferation, 12-point dose-response, GIST T1-10R; assay type: cell-based
[2] = test system: GIST-T1 cells; experiment: Early apoptosis assay; assay type: cell-based; conditions: GIST-T1, 1 μM, 24 h, Annexin V
[3] = test system: GIST 882 cells; experiment: Hit validation cell proliferation, 12-point dose-response, GIST 882; assay type: cell-based; conditions: GIST 882, 1 μM, 72 hour
[4] = test system: GIST T1-10R cells; experiment: Early apoptosis assay; assay type: cell-based; conditions: 1 μM, 24 h, Annexin V
[5] = test system: GIST 882 cells; experiment: Early apoptosis assay; assay type: cell-based; conditions: GIST 882, 1 μM, 24 h, Annexin V
[6] = test system: Caspase 3/7; experiment: Caspase 3/7 activity assay in GIST cells; assay type: cell-based; conditions: 0.1 and 1 μM, 72 hours
[7] = test system: GIST-T1 cells; experiment: Quantitative drug screen, CellTiter-Blue cell viability, GIST-T1; assay type: cell-based; conditions: read-out: IC50 GIST-T1; primary screen, 72 h, 10 μM to […] twofold dilutions; * = IC50 < 0.07 μM and drug showed no dose response
[8] = test system: GIST-T1 cells; experiment: Hit validation cell proliferation, 12-point dose-response, GIST-T1; assay type: cell-based
[9] = test system: phospho-ERK1/2 (Thr202/Tyr204); experiment: Western blot, phospho-ERK1/2 in GIST cells; assay type: cell-based; conditions: for pERK1/2 level, fold change: GIST T1-10R cells, 6 hours
[10] = test system: phospho-c-KIT (Tyr719); experiment: Western blot, phospho-c-KIT in GIST cells; assay type: cell-based
[11] = test system: thioredoxin reductase (TrxR); conditions: for TrxR activity: 6 h
[12] = test system: phospho-AKT (Ser473); experiment: Western blot, phospho-AKT; assay type: cell-based; conditions: GIST 882 cells, all auranofin treatments, 6 h; site not specified
[13] = test system: reactive oxygen species (ROS); experiment: Intracellular ROS activity measurement; assay type: cell-based
[14] = GIST 882 cells, all auranofin treatments, 6 h

CC(=O)OC[C@H]1O[C@@H]([S-])[C@H](OC(C)=O)[C@@H](OC(C)=O)[C@@H]1OC(C)=O.CCP(CC)CC.[Au+] [Auranofin]
cell viability ([1]; GIST T1-10R, 1 μM, 72 hour): decrease in cell viability
cell proliferation induced by low-dose treatment, fold ([1]; GIST T1-10R, low-dose, 72 hour): 1.1–1.2 fold
IC50 ([1]; read-out: IC50 GIST T1-10R, hit validation, 12-point 20 μM to 1 nM, triplicate, 72 h): 20 ± 10 nM
fraction of early apoptotic cells, fold increase [2]: ~ 4 fold
cell viability [3]: decrease in cell viability
fraction of early apoptotic cells, fold increase [4]: ~ 2.8 fold
fraction of early apoptotic cells, fold increase [5]: ~ 2.3 fold
Caspase 3/7 activity [6]: able to increase
IC50 [7]: 230 nM
cell viability ([8]; GIST-T1, 1 μM, 72 hour): decrease in cell viability
cell proliferation induced by low-dose treatment, fold ([8]; GIST-T1, low-dose, 72 hour): 1.1–1.2 fold
IC50 ([8]; read-out: IC50 GIST-T1, hit validation, 12-point 20 μM to 1 nM, triplicate, 72 h): 250 ± 150 nM
phosphorylated level of ERK [9, 14]: does not noticeably alter
pERK1/2 level, fold change ([9]; 0.01 μM): ~ 3.0 fold
pERK1/2 level, fold change ([9]; 0.1 μM): ~ 3.6 fold
pERK1/2 level, fold change ([9]; 1 μM): ~ 2.7 fold
pERK1/2 level, fold change ([9]; 010 μM): ~ 2.4 fold
phosphorylated level of cKIT [10, 14]: does not noticeably alter
p-cKT level, fold change ([10]; GIST-T1 cells, 1 or 10 μM, 6 hours): ~ 0.5 fold
TrxR activity ([11]; GIST T1-10R cells, 0.01 and 0.1 μM): significant decrease
TrxR activity ([11]; all three GIST cell lines, 1.0 and 10 μM): dramatically reduces
TrxR enzymatic activity ([11]; exposure up to 24 hours at 1 μM): inhibited
phosphorylated level of AKT [12]: does not noticeably alter
ROS production, fold change ([13]; GIST 882 cells, 1 and 10 μM, 6 h): 1.5 fold
ROS, fold change vs vehicle-treated cells ([13]; GIST 882 cells, across all auranofin treatments): ~ 1.5 fold
ROS formation, fold change ([13]; GIST T1-10R cells, 1 and 10 μM, 6 h): 2.6 fold
ROS ([13]; all three GIST cell lines, 0.01 and 0.1 μM, 6 h): remained relatively stable
ROS production with longer treatment ([13]; all three GIST cell lines, longer treatment): induces higher production of ROS

— article PMC3707936 (Molecular cancer therapeutics, 2013)
